Consider 26 molecules from patent US10130633B2, “Compounds” (BAYER PHARMA AKTIENGESELLSCHAFT, priority 2013, dated 2018).

Counter-ions that a name gives are not always drawn.

Assay [1] relates to HCT116 FOP control reporter cell line. The assay is described as follows: HCT116 FOPFlash control reporter assay (FOP control vector, non-functional TCF elements). It counts as cell-based. As to conditions: HCT116 FOP control reporter cells, 36 hours incubation, luciferase expression. The text has this:
In a parallel approach, HCT116 cells were cotransfected with the FOP control vector and pcDNA3. The FOP vector is identical to the TOP construct, but it contains instead of functional TCF elements a randomized, non-functional sequence. For this transfection a stable transfected cell line was generated as well.
A general note: A reporter such as luciferase makes a cellular process visible.

For assay [2], the system named is constitutive active colorectal cancer cell (CRC) Wnt pathway. The assay is described as follows: HCT116 TOPFlash cellular reporter assay (Super TopFlash luciferase), constitutive active Wnt pathway. Format: cell-based. As to conditions: HCT116 TOP reporter cells, 36 hours incubation, luciferase expression. On the procedure:
In order to discover and characterize small molecules which inhibit the constitutive active colorectal cancer cell (CRC) Wnt pathway, a cellular reporter assay was employed. […] Stable transfectants were generated by cotransfection with pcDNA3 and selection of stable transfected cells with 1 mg/ml G418.

Usually IC50 stands for the midpoint of a concentration-inhibition curve. Lower therefore signals inhibition by little substance. For `O=C(CN1CCOCC1)Nc1cc(C(=O)Nc2ccc(-c3ccccc3F)nc2)ccc1OC(F)F` [Example 237, 4-(difluoromethoxy)-N-[6-(2-fluorophenyl)pyridin-3-yl]-3-[(morpholin-4-ylacetyl)amino]benzamide], the IC50 in assay [1] (Homo sapiens, HCT-116, 36 h) was 13 µM; in assay [2] (Homo sapiens, HCT-116, 36 h), 0.139 µM.

For `O=C(Cc1ccccn1)Nc1cc(C(=O)Nc2ccc(-c3ccccc3F)nc2)ccc1OC1CC1` [Example 238, 4-(cyclopropyloxy)-N-[6-(2-fluorophenyl)pyridin-3-yl]-3-[(pyridin-2-ylacetyl)amino]benzamide], the 50% inhibitory concentration (IC50) is at least 50 µM in assay [1] (Homo sapiens, HCT-116, 36 h) and 1.75 µM in assay [2] (Homo sapiens, HCT-116, 36 h).

As for `O=C(CN1CCOCC1)Nc1cc(C(=O)Nc2nnc(-c3ccccc3)s2)ccc1OC(F)F` [Example 239, 4-(difluoromethoxy)-3-[(morpholin-4-ylacetyl)amino]-N-(5-phenyl-1,3,4-thiadiazol-2-yl)benzamide], the concentration for half-maximal inhibition (IC50) in assay [1] (Homo sapiens, HCT-116, 36 h) is at least 50 µM; in assay [2] (Homo sapiens, HCT-116, 36 h), 2.89 µM.

Consider `O=C(CN1CC2CCC(C1)O2)Nc1cc(C(=O)Nc2nnc(-c3ccccc3)s2)ccc1OC(F)(F)F` [Example 240, 3-[(8-oxa-3-azabicyclo[3.2.1]oct-3-ylacetyl)amino]-N-(5-phenyl-1,3,4-thiadiazol-2-yl)-4-(trifluoromethoxy)benzamide], for which the concentration for half-maximal inhibition (IC50) in assay [1] (Homo sapiens, HCT-116, 36 h) is at least 50 µM; in assay [2] (Homo sapiens, HCT-116, 36 h), 1.18 µM.

As to `CC(C(=O)Nc1cc(C(=O)Nc2ccc(-c3cc(F)cc(F)c3)nc2)ccc1OC(F)(F)F)N1CCOCC1` (stereo not shown) [Example 245, N-[6-(3,5-difluorophenyl)pyridin-3-yl]-3-{[2-(morpholin-4-yl)propanoyl]amino}-4-(trifluoromethoxy)benzamide], the IC50 is 5.2 µM in assay [1] and 0.00785 µM in assay [2].

In the case of `CC(C(=O)Nc1cc(C(=O)Nc2ccc(-c3cc(F)cc(F)c3)nc2)ccc1OC(F)(F)F)N1CCOCC1` (stereo not shown) [Example 246, N-[6-(3,5-difluorophenyl)pyridin-3-yl]-3-{[2-(morpholin-4-yl)propanoyl]amino}-4-(trifluoromethoxy)benzamide], the concentration for half-maximal inhibition (IC50) in assay [1] came to 27.8 µM; in assay [2], 0.0475 µM.

For `CC(C(=O)Nc1cc(C(=O)Nc2ccc(-c3ccccc3F)nc2)ccc1OC(F)(F)F)N1CCN(C2CC2)CC1` (stereo not shown) [Example 249, 3-{[2-(4-cyclopropylpiperazin-1-yl)propanoyl]amino}-N-[6-(2-fluorophenyl)pyridin-3-yl]-4-(trifluoromethoxy)benzamide], the concentration for half-maximal inhibition (IC50) worked out at 38 µM in assay [1] and 0.198 µM in assay [2].

Regarding `CC(C(=O)Nc1cc(C(=O)Nc2ccc(-c3ccccc3F)nc2)ccc1OC(F)(F)F)N1CCN(C2CC2)CC1` (stereo not shown) [Example 250, 3-{[2-(4-cyclopropylpiperazin-1-yl)propanoyl]amino}-N-[6-(2-fluorophenyl)pyridin-3-yl]-4-(trifluoromethoxy)benzamide], the 50% inhibitory concentration (IC50) in assay [1] is 31 µM; in assay [2], 0.192 µM.

On to `CN(C)C1(C(=O)Nc2cc(C(=O)Nc3ccc(-c4cc(F)cc(F)c4)nc3)ccc2OC(F)(F)F)CC1` [Example 251, N-[6-(3,5-difluorophenyl)pyridin-3-yl]-3-({[1-(dimethylamino)cyclopropyl]carbonyl}amino)-4-(trifluoromethoxy)benzamide], for which the IC50 in assay [1] (Homo sapiens, HCT-116, 36 h) is 16 µM; in assay [2] (Homo sapiens, HCT-116, 36 h), 0.22 µM.

Consider `O=C(CN1CCOCC1)Nc1cc(NC(=O)c2cnc(-c3ccccc3)s2)ccc1OC(F)(F)F` [Example 252, N-{3-[(morpholin-4-ylacetyl)amino]-4-(trifluoromethoxy)phenyl}-2-phenyl-1,3-thiazole-5-carboxamide], for which the concentration for half-maximal inhibition (IC50) in assay [1] (Homo sapiens, HCT-116, 36 h) is at least 50 µM; in assay [2] (Homo sapiens, HCT-116, 36 h), 2.3 µM.

Consider `O=C(CN1CCN(C2CC2)CC1)Nc1cc(C(=O)Nc2nnc(-c3ccccc3)s2)ccc1Br` [Example 253, 4-bromo-3-{[(4-cyclopropylpiperazin-1-yl)acetyl]amino}-N-(5-phenyl-1,3,4-thiadiazol-2-yl)benzamide], for which the concentration for half-maximal inhibition (IC50) in assay [1] (Homo sapiens, HCT-116, 36 h) was at least 50 µM; in assay [2] (Homo sapiens, HCT-116, 36 h) it was 4.04 µM.

`O=C(CN1C[C@@H]2C[C@H]1CO2)Nc1cc(C(=O)Nc2nnc(-c3ccccc3)s2)ccc1OC(F)(F)F` [Example 254, 3-{[(1S,4S)-2-oxa-5-azabicyclo[2.2.1]hept-5-ylacetyl]amino}-N-(5-phenyl-1,3,4-thiadiazol-2-yl)-4-(trifluoromethoxy)benzamide]: the IC50 in assay [1] (Homo sapiens, HCT-116, 36 h) is at least 50 µM; in assay [2] (Homo sapiens, HCT-116, 36 h), 4.34 µM.

In the case of `CC(C(=O)Nc1cc(NC(=O)c2cnc(-c3ccccc3)s2)ccc1OC(F)(F)F)N1CCOCC1` (stereo not shown) [Example 255, N-[3-{[2-(morpholin-4-yl)propanoyl]amino}-4-(trifluoromethoxy)phenyl]-2-phenyl-1,3-thiazole-5-carboxamide], the half-inhibitory concentration (IC50) in assay [1] (Homo sapiens, HCT-116, 36 h) is at least 50 µM; in assay [2] (Homo sapiens, HCT-116, 36 h), 2.1 µM.

Consider `COc1ccc(NC(=O)c2ccc(-c3ccccc3)nc2)cc1NC(=O)C1(N2CCOCC2)CC1` [Example 256, N-[4-methoxy-3-({[1-(morpholin-4-yl)cyclopropyl]carbonyl}amino)phenyl]-6-phenylnicotinamide], for which the IC50 in assay [1] (Homo sapiens, HCT-116, 36 h) is at least 50 µM; in assay [2] (Homo sapiens, HCT-116, 36 h) it was 0.24 µM.

Consider `Cc1ccccc1-c1nnc(NC(=O)c2ccc(OC(F)(F)F)c(NC(=O)C3(N4CCOCC4)CC3)c2)s1` [Example 257, N-[5-(2-methylphenyl)-1,3,4-thiadiazol-2-yl]-3-({[1-(morpholin-4-yl)cyclopropyl]carbonyl}amino)-4-(trifluoromethoxy)benzamide], for which the IC50 was at least 50 µM in assay [1] (Homo sapiens, HCT-116, 36 h) and 0.017 µM in assay [2] (Homo sapiens, HCT-116, 36 h).

Turning to `COCc1ccc(C(=O)Nc2nnc(-c3ccccc3C)s2)cc1NC(=O)C1(N2CCN(C)CC2)CC1` [Example 258, 4-(methoxymethyl)-N-[5-(2-methylphenyl)-1,3,4-thiadiazol-2-yl]-3-({[1-(4-methylpiperazin-1-yl)cyclopropyl]carbonyl}amino)benzamide trifluoroacetate (1:1)], the IC50 amounted to 24 µM in assay [1] (Homo sapiens, HCT-116, 36 h) and 0.0455 µM in assay [2] (Homo sapiens, HCT-116, 36 h).

`CN1CCN(CC(=O)Nc2cc(C(=O)Nc3nnc(-c4ccccc4)s3)ccc2OCC2CC2)CC1` [Example 259, 4-(cyclopropylmethoxy)-3-{[(4-methylpiperazin-1-yl)acetyl]amino}-N-(5-phenyl-1,3,4-thiadiazol-2-yl)benzamide]: the half-inhibitory concentration (IC50) is at least 50 µM in assay [1] (Homo sapiens, HCT-116, 36 h) and 0.119 µM in assay [2] (Homo sapiens, HCT-116, 36 h).

With `COCCN(C)C1(C(=O)Nc2cc(C(=O)Nc3nnc(-c4ccccc4)s3)ccc2OC(F)(F)F)CC1` [Example 261, 3-[({1-[(2-methoxyethyl)(methyl)amino]cyclopropyl}carbonyl)amino]-N-(5-phenyl-1,3,4-thiadiazol-2-yl)-4-(trifluoromethoxy)benzamide], the 50% inhibitory concentration (IC50) in assay [1] (Homo sapiens, HCT-116, 36 h) is at least 50 µM; in assay [2] (Homo sapiens, HCT-116, 36 h) it was 0.15 µM.

In the case of `O=C(Nc1nnc(-c2ccccc2)s1)c1ccc(Cl)c(NC(=O)C2(N3CCN(C4CC4)CC3)CC2)c1` [Example 262, 4-chloro-3-({[1-(4-cyclopropylpiperazin-1-yl)cyclopropyl]carbonyl}amino)-N-(5-phenyl-1,3,4-thiadiazol-2-yl)benzamide trifluoroacetate (1:1)], the IC50 in assay [1] (Homo sapiens, HCT-116, 36 h) was at least 50 µM; in assay [2] (Homo sapiens, HCT-116, 36 h), 0.195 µM.

For `Nc1ccc(-c2nnc(NC(=O)c3ccc(OC(F)(F)F)c(NC(=O)CN4CCOCC4)c3)s2)cc1` [Example 263, N-[5-(4-aminophenyl)-1,3,4-thiadiazol-2-yl]-3-[(morpholin-4-ylacetyl)amino]-4-(trifluoromethoxy)benzamide], the IC50 is at least 50 µM in assay [1] (Homo sapiens, HCT-116, 36 h) and 0.25 µM in assay [2] (Homo sapiens, HCT-116, 36 h).

Consider `Cc1ccccc1-c1nnc(NC(=O)c2ccc(OC3CC3)c(NC(=O)CN3CCN(C)CC3)c2)s1` [Example 264, 4-(cyclopropyloxy)-N-[5-(2-methylphenyl)-1,3,4-thiadiazol-2-yl]-3-{[(4-methylpiperazin-1-yl)acetyl]amino}benzamide], for which the half-inhibitory concentration (IC50) was at least 50 µM in assay [1] (Homo sapiens, HCT-116, 36 h) and 0.255 µM in assay [2] (Homo sapiens, HCT-116, 36 h).

`O=C(CN1CCN(C2CC2)CC1)Nc1cc(C(=O)Nc2nnc(-c3ccccc3)s2)ccc1OCC1CC1` [Example 265, 4-(cyclopropylmethoxy)-3-{[(4-cyclopropylpiperazin-1-yl)acetyl]amino}-N-(5-phenyl-1,3,4-thiadiazol-2-yl)benzamide]: the half-inhibitory concentration (IC50) is at least 50 µM in assay [1] (Homo sapiens, HCT-116, 36 h) and 0.32 µM in assay [2] (Homo sapiens, HCT-116, 36 h).

Turning to `Cc1ccccc1-c1nnc(NC(=O)c2ccc(OC3CC3)c(NC(=O)CN3CCOCC3)c2)s1` [Example 266, 4-(cyclopropyloxy)-N-[5-(2-methylphenyl)-1,3,4-thiadiazol-2-yl]-3-[(morpholin-4-ylacetyl)amino]benzamide], the IC50 in assay [1] (Homo sapiens, HCT-116, 36 h) was at least 50 µM; in assay [2] (Homo sapiens, HCT-116, 36 h), 0.345 µM.

In the case of `CN1CCN(CC(=O)Nc2cc(C(=O)Nc3nnc(-c4cccc(C#N)c4)s3)ccc2OC(F)(F)F)CC1` [Example 267, N-[5-(3-cyanophenyl)-1,3,4-thiadiazol-2-yl]-3-{[(4-methylpiperazin-1-yl)acetyl]amino}-4-(trifluoromethoxy)benzamide], the concentration for half-maximal inhibition (IC50) in assay [1] (Homo sapiens, HCT-116, 36 h) is at least 50 µM; in assay [2] (Homo sapiens, HCT-116, 36 h), 0.365 µM.

As for `O=C(CN1CCOCC1)Nc1cc(C(=O)Nc2nnc(-c3ccccc3)s2)ccc1OCC1CC1` [Example 268, 4-(cyclopropylmethoxy)-3-[(morpholin-4-ylacetyl)amino]-N-(5-phenyl-1,3,4-thiadiazol-2-yl)benzamide], the 50% inhibitory concentration (IC50) in assay [1] (Homo sapiens, HCT-116, 36 h) was at least 50 µM; in assay [2] (Homo sapiens, HCT-116, 36 h) it was 0.365 µM.

As for `CCc1ccccc1-c1nnc(NC(=O)c2ccc(OC(F)(F)F)c(NC(=O)CN3CCOCC3)c2)s1` [Example 269, N-[5-(2-ethylphenyl)-1,3,4-thiadiazol-2-yl]-3-[(morpholin-4-ylacetyl)amino]-4-(trifluoromethoxy)benzamide], the IC50 in assay [1] (Homo sapiens, HCT-116, 36 h) was at least 50 µM; in assay [2] (Homo sapiens, HCT-116, 36 h), 0.375 µM.
